Source: PubChem BioAssay (NCI)
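Values below derive from 48-hour exposures of cells grown in 96-well plates, with endpoints linearly interpolated between the two concentrations bracketing the appropriate inhibition level. GI50 is the concentration that inhibits growth by half. TGI: total growth inhibition.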

Assays:
Experiment in all cases: growth of human tumour cells (NCI), 48 h
[1] = tested on: OVCAR-3 ovarian
[2] = tested on: LOX IMVI melanoma
[3] = tested on: BT-549 breast
[4] = tested on: SF-539 CNS
[5] = tested on: KM12 colon
[6] = tested on: UACC-62 melanoma
[7] = tested on: MDA-MB-231 breast
[8] = tested on: M14 melanoma
[9] = tested on: MOLT-4 leukemia
[10] = tested on: SR leukemia
[11] = tested on: HOP-92 NSCLC
[12] = tested on: NCI-H522 lung
[13] = tested on: MALME-3M melanoma
[14] = tested on: OVCAR-8 ovarian
[15] = tested on: IGROV1 ovarian
[16] = tested on: MDA-N
[17] = tested on: ACHN renal
[18] = tested on: DU-145 prostate
[19] = tested on: SNB-75 CNS
[20] = tested on: HS 578T breast
[21] = tested on: NCI-H226 lung
[22] = tested on: SF-268 CNS
[23] = tested on: SNB-19 CNS
[24] = tested on: RPMI-8226 leukemia
[25] = tested on: HOP-62 NSCLC
[26] = tested on: 786-0 renal
[27] = tested on: HT29 colon
[28] = tested on: TK-10 renal
[29] = tested on: HCC-2998 colon
[30] = tested on: HCT-116 colon
[31] = tested on: SW-620 colon
[32] = tested on: SK-MEL-2 melanoma
[33] = tested on: NCI/ADR-RES ovarian
[34] = tested on: NCI-H460 lung
[35] = tested on: OVCAR-4 ovarian
[36] = tested on: U251 CNS
[37] = tested on: UACC-257 melanoma
[38] = tested on: CCRF-CEM leukemia
[39] = tested on: HCT-15 colon
[40] = tested on: OVCAR-5 ovarian
[41] = tested on: SF-295 CNS
[42] = tested on: SK-MEL-5 melanoma
[43] = tested on: CAKI-1 renal
[44] = tested on: SK-OV-3 ovarian
[45] = tested on: PC-3 prostate
[46] = tested on: SK-MEL-28 melanoma
[47] = tested on: A549 NSCLC
[48] = tested on: MCF7 breast
[49] = tested on: EKVX NSCLC
[50] = tested on: UO-31 renal
[51] = tested on: COLO 205 colon
[52] = tested on: MDA-MB-435
[53] = tested on: K-562 leukemia
[54] = tested on: SN12C renal
[55] = tested on: HL-60(TB) leukemia
[56] = tested on: RXF 393 renal
[57] = tested on: NCI-H23 lung
[58] = tested on: T-47D breast
[59] = tested on: A498 renal

## COc1cccc(C(C#N)NC23CC4CC(CC(C4)C2)C3)c1 (stereo not drawn)
[1]
  TGI: > 100 µM
[2]
  TGI: > 100 µM
[3]
  TGI: > 100 µM
[4]
  TGI: > 100 µM
[5]
  TGI: > 100 µM
[6]
  TGI: > 100 µM
[7]
  TGI: > 100 µM
[8]
  TGI: > 100 µM
[9]
  TGI: > 100 µM
[10]
  TGI: > 100 µM
[11]
  TGI: > 100 µM
[12]
  TGI: > 100 µM
[13]
  TGI: > 100 µM
[14]
  TGI: > 100 µM
[15]
  TGI: > 100 µM
[16]
  TGI: > 100 µM
[17]
  TGI: > 100 µM
[18]
  TGI: > 100 µM
[19]
  TGI: > 100 µM
[20]
  TGI: > 100 µM
[21]
  TGI: > 100 µM
[22]
  TGI: > 100 µM
[23]
  TGI: > 100 µM
[24]
  TGI: > 100 µM
[25]
  TGI: > 100 µM
[26]
  TGI: > 100 µM
[27]
  TGI: > 100 µM
[28]
  TGI: > 100 µM
[29]
  TGI: > 100 µM
[30]
  TGI: > 100 µM
[31]
  TGI: > 100 µM
[32]
  TGI: > 100 µM
[33]
  TGI: > 100 µM
[34]
  TGI: > 100 µM
[35]
  TGI: > 100 µM
[36]
  TGI: > 100 µM
[37]
  TGI: > 100 µM
[38]
  TGI: > 100 µM
[39]
  TGI: > 100 µM
[40]
  TGI: > 100 µM
[41]
  TGI: > 100 µM
[42]
  TGI: > 100 µM
[43]
  TGI: > 100 µM
[44]
  TGI: > 100 µM
[45]
  TGI: > 100 µM
[46]
  TGI: > 100 µM
[47]
  TGI: > 100 µM
[48]
  TGI: > 100 µM
[49]
  TGI: > 100 µM
[50]
  TGI: > 100 µM
[51]
  TGI: > 100 µM
[52]
  TGI: > 100 µM
[53]
  TGI: > 100 µM
[54]
  TGI: > 100 µM
[55]
  TGI: > 100 µM
[56]
  TGI: > 100 µM
[57]
  TGI: > 100 µM
[58]
  TGI: > 100 µM

## O=C(O)CN(CC(=O)O)c1ccccc1
[1]
  TGI: > 100 µM
[2]
  TGI: > 100 µM
[3]
  TGI: > 100 µM
[4]
  TGI: > 100 µM
[5]
  TGI: > 100 µM
[6]
  TGI: > 100 µM
[7]
  TGI: > 100 µM
[8]
  TGI: > 100 µM
[9]
  TGI: > 100 µM
[10]
  TGI: > 100 µM
[11]
  TGI: > 100 µM
[12]
  TGI: > 100 µM
[13]
  TGI: > 100 µM
[14]
  TGI: > 100 µM
[15]
  TGI: > 100 µM
[16]
  TGI: > 100 µM
[17]
  TGI: > 100 µM
[18]
  TGI: > 100 µM
[19]
  TGI: > 100 µM
[20]
  TGI: > 100 µM
[21]
  TGI: > 100 µM
[22]
  TGI: > 100 µM
[23]
  TGI: > 100 µM
[24]
  TGI: 92.1 µM
[25]
  TGI: > 100 µM
[26]
  TGI: > 100 µM
[27]
  TGI: > 100 µM
[28]
  TGI: > 100 µM
[30]
  TGI: > 100 µM
[31]
  TGI: > 100 µM
[32]
  TGI: > 100 µM
[33]
  TGI: > 100 µM
[34]
  TGI: > 100 µM
[35]
  TGI: > 100 µM
[36]
  TGI: > 100 µM
[37]
  TGI: > 100 µM
[38]
  TGI: 83.7 µM
[39]
  TGI: > 100 µM
[40]
  TGI: > 100 µM
[41]
  TGI: > 100 µM
[42]
  TGI: > 100 µM
[43]
  TGI: > 100 µM
[44]
  TGI: > 100 µM
[45]
  TGI: > 100 µM
[46]
  TGI: > 100 µM
[59]
  TGI: > 100 µM
[47]
  TGI: > 100 µM
[48]
  TGI: > 100 µM
[49]
  TGI: > 100 µM
[50]
  TGI: > 100 µM
[51]
  TGI: > 100 µM
[52]
  TGI: > 100 µM
[53]
  TGI: > 100 µM
[54]
  TGI: > 100 µM
[55]
  TGI: > 100 µM
[56]
  TGI: > 100 µM
[57]
  TGI: > 100 µM
[58]
  TGI: > 100 µM

## Cc1cn(C2CC(N=[N+]=[N-])C(CO)O2)c(=O)[nH]c1=O (stereo not drawn)
[1]
  GI50: > 1000 µM
  TGI: > 1000 µM
[2]
  GI50: 532 µM
  TGI: > 1000 µM
[3]
  TGI: > 1000 µM
[5]
  GI50: 472 µM
  TGI: > 1000 µM
[6]
  TGI: > 1000 µM
[7]
  GI50: > 1000 µM
  TGI: > 1000 µM
[8]
  GI50: > 1000 µM
  TGI: > 1000 µM
[9]
  GI50: > 1000 µM
  TGI: > 1000 µM
[10]
  TGI: > 1000 µM
[11]
  GI50: > 1000 µM
  TGI: > 1000 µM
[12]
  GI50: > 1000 µM
  TGI: > 1000 µM
[13]
  GI50: > 1000 µM
  TGI: > 1000 µM
[14]
  TGI: > 1000 µM
[15]
  GI50: > 1000 µM
  TGI: > 1000 µM
[16]
  TGI: > 1000 µM
[17]
  GI50: > 1000 µM
  TGI: > 1000 µM
[18]
  TGI: > 1000 µM
[20]
  TGI: > 1000 µM
[21]
  GI50: > 1000 µM
  TGI: > 1000 µM
[24]
  GI50: 20.4 µM
  TGI: 184 µM
[25]
  GI50: > 1000 µM
  TGI: > 1000 µM
[26]
  GI50: > 1000 µM
  TGI: > 1000 µM
[27]
  TGI: > 1000 µM
[28]
  TGI: > 1000 µM
[29]
  GI50: > 1000 µM
  TGI: > 1000 µM
[30]
  TGI: 422 µM
[31]
  GI50: > 1000 µM
  TGI: > 1000 µM
[32]
  GI50: > 1000 µM
  TGI: > 1000 µM
[33]
  GI50: 296 µM
  TGI: > 1000 µM
[35]
  GI50: > 1000 µM
  TGI: > 1000 µM
[37]
  GI50: > 1000 µM
  TGI: > 1000 µM
[38]
  TGI: > 1000 µM
[39]
  GI50: > 1000 µM
  TGI: > 1000 µM
[40]
  GI50: > 1000 µM
  TGI: > 1000 µM
[42]
  TGI: > 1000 µM
[43]
  GI50: 479 µM
  TGI: > 1000 µM
[44]
  GI50: > 1000 µM
  TGI: > 1000 µM
[45]
  TGI: > 1000 µM
[47]
  GI50: 325 µM
  TGI: > 1000 µM
[48]
  GI50: 50.1 µM
  TGI: > 1000 µM
[49]
  GI50: > 1000 µM
  TGI: > 1000 µM
[50]
  GI50: > 1000 µM
  TGI: > 1000 µM
[51]
  GI50: 433 µM
  TGI: > 1000 µM
[52]
  TGI: > 1000 µM
[53]
  TGI: > 1000 µM
[54]
  GI50: > 1000 µM
  TGI: > 1000 µM
[55]
  TGI: > 1000 µM
[57]
  GI50: > 1000 µM
  TGI: > 1000 µM
[58]
  GI50: > 1000 µM
  TGI: > 1000 µM
